Counter-ions that a name gives are not always drawn.

The target in the assay is HDAC6 (Homo sapiens (Human), UniProt Q9UBN7). Nature of the assay: HDAC6 in vitro enzymatic assay (fluorescence). The class given is biochemical. Particulars: Table 3; read-out: IC50 (nM) for inhibition of HDAC6. The procedure: Biological Tests Method for Measurement of Enzymatic Activity of HDACs Materials & Methods
HDAC6, sequence (Q9UBN7 whole entry): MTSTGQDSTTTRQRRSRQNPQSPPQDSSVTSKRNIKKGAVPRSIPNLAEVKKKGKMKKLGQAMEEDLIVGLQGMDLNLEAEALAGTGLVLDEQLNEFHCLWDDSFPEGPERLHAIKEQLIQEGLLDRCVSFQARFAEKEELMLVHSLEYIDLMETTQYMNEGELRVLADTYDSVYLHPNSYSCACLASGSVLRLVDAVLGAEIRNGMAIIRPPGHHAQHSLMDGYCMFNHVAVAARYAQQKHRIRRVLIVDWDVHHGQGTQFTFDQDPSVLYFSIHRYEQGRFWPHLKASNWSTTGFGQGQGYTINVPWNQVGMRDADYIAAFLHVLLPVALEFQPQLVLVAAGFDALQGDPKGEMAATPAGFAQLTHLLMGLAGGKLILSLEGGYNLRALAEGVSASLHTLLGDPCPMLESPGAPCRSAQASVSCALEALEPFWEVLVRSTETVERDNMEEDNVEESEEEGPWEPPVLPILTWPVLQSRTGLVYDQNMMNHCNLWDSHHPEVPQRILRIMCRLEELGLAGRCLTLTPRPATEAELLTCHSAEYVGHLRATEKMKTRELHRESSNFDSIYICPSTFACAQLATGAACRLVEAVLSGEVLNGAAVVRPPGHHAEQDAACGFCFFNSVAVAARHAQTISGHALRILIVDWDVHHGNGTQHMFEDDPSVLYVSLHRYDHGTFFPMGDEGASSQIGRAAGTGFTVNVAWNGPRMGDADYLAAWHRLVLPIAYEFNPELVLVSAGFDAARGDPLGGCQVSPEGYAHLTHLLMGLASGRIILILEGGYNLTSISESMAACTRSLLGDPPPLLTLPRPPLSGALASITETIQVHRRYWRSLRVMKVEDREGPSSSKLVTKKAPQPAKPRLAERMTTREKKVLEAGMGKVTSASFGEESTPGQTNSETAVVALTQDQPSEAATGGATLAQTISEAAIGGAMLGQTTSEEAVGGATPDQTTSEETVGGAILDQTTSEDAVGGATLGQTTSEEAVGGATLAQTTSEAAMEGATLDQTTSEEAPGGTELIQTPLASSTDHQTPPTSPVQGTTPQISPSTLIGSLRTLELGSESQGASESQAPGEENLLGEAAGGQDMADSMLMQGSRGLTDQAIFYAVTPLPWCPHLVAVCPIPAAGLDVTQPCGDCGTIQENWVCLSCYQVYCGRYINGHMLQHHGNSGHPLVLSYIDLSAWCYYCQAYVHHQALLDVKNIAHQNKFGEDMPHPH
All Examples were tested in HDAC1,2,3,6 and 8 in vitro enzymatic assays. The assay principle is well known (Hauser et al. 2009, Bradner et al. 2010) and all necessary reagents like enzymes, substrates, developer and reference compounds are commercially available (see e.g. BPS Biosciences http://www.bpsbioscience.com/). Stock solutions (10 mM in DMSO) of compounds were serially diluted 1:3 in 11 concentrations with a top concentration of 200 μM for HDAC1,2,3 and 2 μM for HDAC6 and HDAC8. The enzymatic reactions were conducted in a mixture containing assay buffer, bovine serum albumin, HDAC substrate, and a test compound. After enzymatic reaction, developer was added and after an additional incubation time, fluorescence intensity was measured at an excitation wavelength of 360 nm and an emission wavelength of 460 nm. All experiments were performed in duplicate.
Regarding `O=C(NO)c1ccc2oc(-c3ccc(Br)cc3)nc2c1` [Example 2, 2-(4-bromophenyl)-N-hydroxy-1,3-benzoxazole-5-carboxamide], the IC50 came to 4 nM.

In the case of `O=C(NO)c1ccc2oc(-c3ccc(F)c(F)c3)nc2c1` [Example 5, 2-(3,4-difluorophenyl)-N-hydroxy-1,3-benzoxazole-5-carboxamide], the IC50 was found to be 36 nM.

Regarding `O=C(NO)c1ccc2oc(-c3ccccc3)nc2c1` [Example 7, N-hydroxy-2-phenyl-1,3-benzoxazole-5-carboxamide], the IC50 came to 15 nM.

For the compound `O=C(NO)c1ccc2oc(-c3ccc4c(c3)OCO4)nc2c1` [Example 8, 2-(1,3-benzodioxo1-5-yl)-N-hydroxy-1,3-benzoxazole-5-carboxamide], the concentration for half-maximal inhibition (IC50) was determined as 14 nM.

As to `COc1ccc(-c2nc3cc(C(=O)NO)ccc3o2)cc1` [Example 11, N-hydroxy-2-(4-methoxyphenyl)-1,3-benzoxazole-5-carboxamide], the 50% inhibitory concentration (IC50) was 8 nM.

As for `O=C(NO)c1ccc2oc(-c3ccc(N4CCOCC4)nc3)nc2c1` [Example 15, N-hydroxy-2-(6-morpholin-4-ylpyridin-3-yl)-1,3-benzoxazole-5-carboxamide], the half-inhibitory concentration (IC50) amounted to 28 nM.

Consider `O=C(NO)c1ccc2oc(-c3cccc(Br)c3)nc2c1` [Example 16, 2-(3-bromophenyl)-N-hydroxy-1,3-benzoxazole-5-carboxamide], for which the IC50 amounted to 7 nM.

On to `O=C(NO)c1ccc2oc(-c3ccc(-c4ccncc4)cc3)nc2c1` [Example 22, N-hydroxy-2-(4-pyridin-4-ylphenyl)-1,3-benzoxazole-5-carboxamide], for which the IC50 amounted to 13 nM.

Consider `O=C(NO)c1ccc2oc(-c3ccc(-c4cccnc4)cc3)nc2c1` [Example 23, N-hydroxy-2-(4-pyridin-3-ylphenyl)-1,3-benzoxazole-5-carboxamide], for which the IC50 is 11 nM.

For the compound `O=C(NO)c1ccc2oc(-c3ccc(-c4ccc(CN5CCCCC5)cc4)cc3)nc2c1` [Example 30, N-Hydroxy-2-[4′-(piperidin-1-ylmethyl)biphenyl-4-yl]-1,3-benzoxazole-5-carboxamide trifluoroacetate], the concentration for half-maximal inhibition (IC50) worked out at 14 nM.

As to `CCN(CC)c1ccc(-c2nc3cc(C(=O)NO)ccc3o2)cc1` [Example 33, 2-[4-(Diethylamino)phenyl]-N-hydroxy-1,3-benzoxazole-5-carboxamide trifluoroacetate], the half-inhibitory concentration (IC50) turned out to be 22 nM.

With `N#Cc1ccc(-c2nc3cc(C(=O)NO)ccc3o2)cc1` [Example 36, 2-(4-Cyanophenyl)-N-hydroxy-1,3-benzoxazole-5-carboxamide], the IC50 is 56 nM.

In the case of `O=C(NO)c1ccc2oc(-c3ccc4[nH]nnc4c3)nc2c1` [Example 39, 2-(1H-Benzotriazol-5-yl)-N-hydroxy-1,3-benzoxazole-5-carboxamide], the IC50 came out at 26 nM.

As to `Cc1ncccc1-c1nc2cc(C(=O)NO)ccc2o1` [Example 40, N-Hydroxy-2-(2-methylpyridin-3-yl)-1,3-benzoxazole-5-carboxamide trifluoroacetate], the half-maximal inhibitory concentration (IC50) stood at 54 nM.

Turning to `O=C(NO)c1ccc2oc(-c3ccc(N4CCCC4)nc3)nc2c1` [Example 41, N-Hydroxy-2-(6-pyrrolidin-1-ylpyridin-3-yl)-1,3-benzoxazole-5-carboxamide trifluoroacetate], the 50% inhibitory concentration (IC50) is 22 nM.

With `O=C(NO)c1ccc2oc(Nc3ccccc3)nc2c1` [Example 42, N-Hydroxy-2-(phenylamino)-1,3-benzoxazole-5-carboxamide], the 50% inhibitory concentration (IC50) is 14 nM.

As to `CN(Cc1ccccc1)c1nc2cc(C(=O)NO)ccc2o1` [Example 44, 2-[benzyl(methyl)amino]-N-hydroxy-1,3-benzoxazole-5-carboxamide], the IC50 was 63 nM.

As for `O=C(NO)c1ccc2oc(NCCc3ccccc3)nc2c1` [Example 45, N-hydroxy-2-[(2-phenylethyl)amino]-1,3-benzoxazole-5-carboxamide], the concentration for half-maximal inhibition (IC50) stood at 21 nM.

As to `O=C(NO)c1ccc2oc(N3CCc4ccccc4C3)nc2c1` [Example 46, 2-(3,4-dihydroisoquinolin-2(1H)-yl)-N-hydroxy-1,3-benzoxazole-5-carboxamide], the IC50 is 48 nM.

On to `O=C(NO)c1ccc2oc(Nc3cccc(OCc4ccccc4)c3)nc2c1` [Example 47, 2-{[3-(benzyloxy)phenyl]amino}-N-hydroxy-1,3-benzoxazole-5-carboxamide], for which the IC50 is 31 nM.

`O=C(NO)c1ccc2oc(N3CCC(Cc4ccccc4)CC3)nc2c1` [Example 48, 2-(4-benzylpiperidin-1-yl)-N-hydroxy-1,3-benzoxazole-5-carboxamide]: the concentration for half-maximal inhibition (IC50) is 73 nM.

As for `CC(C)c1ccc(-c2nc3ccc(C(=O)NO)cc3o2)cc1` [Example 49, N-Hydroxy-2-[4-(1-methylethyl)phenyl]-1,3-benzoxazole-6-carboxamide], the IC50 was 9 nM.

As for `O=C(NO)c1ccc2nc(-c3ccc(F)cc3)oc2c1` [Example 50, 2-(4-Fluorophenyl)-N-hydroxy-1,3-benzoxazole-6-carboxamide], the IC50 is 34 nM.

With `CC(C)(C)c1ccc(-c2nc3ccc(C(=O)NO)cc3o2)cc1` [Example 51, 2-(4-tert-butylphenyl)-N-hydroxy-1,3-benzoxazole-6-carboxamide], the IC50 was found to be 22 nM.

For the compound `COc1ccc(-c2nc3ccc(C(=O)NO)cc3o2)cc1` [Example 52, N-hydroxy-2-(4-methoxyphenyl)-1,3-benzoxazole-6-carboxamide], the IC50 is 17 nM.

For the compound `O=C(NO)c1ccc2nc(-c3ccc4[nH]nnc4c3)oc2c1` [Example 54, 2-(1H-Benzotriazol-5-yl)-N-hydroxy-1,3-benzoxazole-6-carboxamide], the half-inhibitory concentration (IC50) was 60 nM.

Regarding `O=C(NO)c1ccc2nc(-c3ccc(-c4cccnc4)nc3)oc2c1` [Example 55, 2-(2,3′-Bipyridin-5-yl)-N-hydroxy-1,3-benzoxazole-6-carboxamide trifluoroacetate], the IC50 came to 81 nM.

Turning to `CC(C)c1ccc(-c2nc3ncc(C(=O)NO)cc3[nH]2)cc1` [Example 57, N-Hydroxy-2-[4-(1-methylethyl)phenyl]-1H-imidzo[4,5-b]pyridine-6-carboxamide], the 50% inhibitory concentration (IC50) amounted to 11 nM.

`CC(C)c1ccc(-c2cc3cc(C(=O)NO)ccc3[nH]2)cc1` [Example 60, N-Hydroxy-2-[4-(1-methylethyl)phenyl]-1H-indole-5-carboxamide]: the 50% inhibitory concentration (IC50) is 62 nM.

Take `COc1ccc(-c2nc3cc(C(=O)NO)ccc3s2)cc1` [Example 78, N-hydroxy-2-(4-methoxyphenyl)-1,3-benzothiazole-5-carboxamide]: the IC50 turned out to be 12 nM.

With `O=C(NO)c1ccc2sc(Cc3ccc(F)cc3)nc2c1` [Example 79, 2-(4-fluorobenzyl)-N-hydroxy-1,3-benzothiazole-5-carboxamide], the IC50 is 7 nM.

On to `O=C(NO)c1ccc2sc(-c3cncc(Br)c3)nc2c1` [Example 80, 2-(5-Bromopyridin-3-yl)-N-hydroxy-1,3-benzothiazole-5-carboxamide], for which the 50% inhibitory concentration (IC50) stood at 30 nM.

Turning to `COc1cccc2cc(-c3nc4cc(C(=O)NO)ccc4s3)oc12` [Example 81, N-Hydroxy-2-(7-methoxy-1-benzofuran-2-yl)-1,3-benzothiazole-5-carboxamide], the IC50 is 33 nM.

As to `CCc1ccc(-c2nc3cc(C(=O)NO)ccc3s2)cc1` [Example 82, 2-(4-Ethylphenyl)-N-hydroxy-1,3-benzothiazole-5-carboxamide], the IC50 was 11 nM.

For `CC(C)c1ccc(-c2nc3cc(C(=O)NO)cnc3o2)cc1` [Example 83, N-Hydroxy-2-[4-(1-methylethyl)phenyl][1,3]oxazolo[5,4-b]pyridine-6-carboxamide], the IC50 was found to be 25 nM.

Take `CC(C)c1ccc(-c2cc3cc(C(=O)NO)cnc3[nH]2)cc1` [Example 84, N-Hydroxy-2-[4-(1-methylethyl)phenyl]-1H-pyrrolo[2,3-b]pyridine-5-carboxamide]: the 50% inhibitory concentration (IC50) came to 19 nM.

Turning to `CC(C)c1ccc(-c2cc3cc(C(=O)NO)cnc3s2)cc1` [Example 87, N-Hydroxy-2-[4-(1-methylethyl)phenyl]thieno[2,3-b]pyridine-5-carboxamide], the IC50 was found to be 42 nM.

Turning to `COc1ccc(-c2cc3cc(C(=O)NO)ccc3s2)cc1` [Example 93, N-hydroxy-2-(4-methoxyphenyl)-1-benzothiophene-5-carboxamide], the IC50 was determined as 9 nM.

Turning to `O=C(NO)c1ccc2sc(-c3ccc4[nH]ccc4c3)cc2c1` [Example 95, N-hydroxy-2-(1H-indol-5-yl)-1-benzothiophene-5-carboxamide], the concentration for half-maximal inhibition (IC50) stood at 22 nM.

Consider `COc1ncccc1-c1cc2cc(C(=O)NO)ccc2s1` [Example 97, N-hydroxy-2-(2-methoxypyridin-3-yl)-1-benzothiophene-5-carboxamide], for which the IC50 came out at 47 nM.

`Cn1cc(-c2cc3cc(C(=O)NO)ccc3s2)cn1` [Example 99, N-hydroxy-2-(1-methyl-1H-pyrazol-4-yl)-1-benzothiophene-5-carboxamide]: the 50% inhibitory concentration (IC50) was 16 nM.

On to `O=C(NO)c1ccc2sc(-c3cc(F)ccc3O)cc2c1` [Example 105, 2-(5-fluoro-2-hydroxyphenyl)-N-hydroxy-1-benzothiophene-5-carboxamide], for which the IC50 stood at 37 nM.

Consider `COc1ccc(F)cc1-c1cc2cc(C(=O)NO)ccc2s1` [Example 106, 2-(5-fluoro-2-methoxyphenyl)-N-hydroxy-1-benzothiophene-5-carboxyamide], for which the IC50 was 86 nM.

Regarding `CN(C)C(=O)c1ccc(-c2cc3cc(C(=O)NO)ccc3s2)cc1` [Example 108, 2-[4-(dimethylcarbamoyl)phenyl]-N-hydroxy-1-benzothiophene-5-carboxamide], the concentration for half-maximal inhibition (IC50) stood at 35 nM.

The record behind these values is US10654814B2, “Bicyclic hydroxamic acids useful as inhibitors of mammalian histone deacetylase activity” (KANCERA AB, priority 2015, dated 2020).
